One may read the IC50 as the concentration that inhibits the measured activity by half. Low readings indicate inhibition by little substance, high ones a need for much substance.

We go through 22 compounds from patent US9120804B2, “8-substituted 2-amino-[1,2,4] triazolo [1, 5-A] pyrazines as Syk tryrosine kinase inhibitors and GCN2 serin kinase inhibitors” (Merck Patent GmbH, priority 2012, dated 2015).

Where a name gives a salt, the structure may show the parent alone. Some results are limits rather than exact numbers.

Assay [1] has as its target T1, SYK (Homo sapiens, UniProt P43405).
T1 construct: 2.5 nM SYK, 400 nM Biotin-Aha-Aha-KEDPDYEWPSAKK
Briefly: SYK flash plate assay (enzyme assay). The class given is biochemical. In short, it runs like this:
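Radiometric Flashplate format: biotinylated peptide substrate (400 nM) and 33P-labelled ATP (10 μM) react with 2.5 nM enzyme for 1 hour at 30 °C in Hepes buffer, pH 7.5. After EDTA quench and washing, counts are taken; staurosporine defines non-specific signal, and IC50 values are derived.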

The target of assay [2] is GCN2 (Homo sapiens, UniProt Q9P2K8). Description: GCN2 enzyme assay. The class given is biochemical.
GCN2, sequence (Q9P2K8 whole entry): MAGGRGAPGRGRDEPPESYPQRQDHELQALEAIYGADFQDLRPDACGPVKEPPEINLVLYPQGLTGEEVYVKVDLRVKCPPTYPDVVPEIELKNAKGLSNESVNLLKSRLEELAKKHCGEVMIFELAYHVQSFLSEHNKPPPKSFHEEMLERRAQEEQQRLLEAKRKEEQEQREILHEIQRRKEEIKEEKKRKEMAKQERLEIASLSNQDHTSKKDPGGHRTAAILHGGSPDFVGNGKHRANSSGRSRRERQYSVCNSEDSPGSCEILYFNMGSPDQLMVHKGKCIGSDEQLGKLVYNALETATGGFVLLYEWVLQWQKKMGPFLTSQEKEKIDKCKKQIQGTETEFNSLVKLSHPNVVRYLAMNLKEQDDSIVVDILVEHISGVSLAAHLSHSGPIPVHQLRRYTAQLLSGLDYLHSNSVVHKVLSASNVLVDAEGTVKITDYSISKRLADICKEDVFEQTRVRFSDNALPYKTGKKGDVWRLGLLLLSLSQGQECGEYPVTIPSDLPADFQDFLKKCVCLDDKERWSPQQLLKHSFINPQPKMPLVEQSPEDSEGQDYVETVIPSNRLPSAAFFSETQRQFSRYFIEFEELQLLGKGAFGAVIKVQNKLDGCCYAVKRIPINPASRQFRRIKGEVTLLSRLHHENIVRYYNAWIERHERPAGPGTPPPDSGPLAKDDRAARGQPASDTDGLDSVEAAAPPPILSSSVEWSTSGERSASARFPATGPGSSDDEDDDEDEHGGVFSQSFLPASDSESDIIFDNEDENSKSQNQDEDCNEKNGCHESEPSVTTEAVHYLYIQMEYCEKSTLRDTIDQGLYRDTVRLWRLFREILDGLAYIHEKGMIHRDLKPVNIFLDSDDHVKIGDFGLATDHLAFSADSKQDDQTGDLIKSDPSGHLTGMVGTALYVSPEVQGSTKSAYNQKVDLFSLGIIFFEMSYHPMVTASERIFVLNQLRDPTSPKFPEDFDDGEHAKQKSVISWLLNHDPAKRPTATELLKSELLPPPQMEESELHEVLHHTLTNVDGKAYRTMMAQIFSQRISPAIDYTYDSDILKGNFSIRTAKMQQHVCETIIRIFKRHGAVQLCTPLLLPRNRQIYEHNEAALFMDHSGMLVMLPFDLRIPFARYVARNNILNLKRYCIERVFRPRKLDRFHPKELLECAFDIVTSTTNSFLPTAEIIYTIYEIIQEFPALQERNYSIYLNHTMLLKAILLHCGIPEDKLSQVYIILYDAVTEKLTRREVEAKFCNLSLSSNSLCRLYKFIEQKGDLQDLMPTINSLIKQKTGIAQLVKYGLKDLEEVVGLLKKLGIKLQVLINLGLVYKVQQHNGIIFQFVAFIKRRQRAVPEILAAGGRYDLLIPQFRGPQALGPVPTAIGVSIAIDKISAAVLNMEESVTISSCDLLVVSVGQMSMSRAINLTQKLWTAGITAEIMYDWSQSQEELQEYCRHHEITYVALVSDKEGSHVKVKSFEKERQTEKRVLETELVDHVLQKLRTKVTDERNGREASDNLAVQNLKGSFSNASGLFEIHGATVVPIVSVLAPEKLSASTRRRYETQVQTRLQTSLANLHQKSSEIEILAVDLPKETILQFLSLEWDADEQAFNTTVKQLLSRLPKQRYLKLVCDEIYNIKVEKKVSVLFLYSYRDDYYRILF

Take `CC1(C)C(=O)Nc2cc(Nc3nc4c(N5CCC(N6CCNC6=O)CC5)nccn4n3)ccc21` [C104, 3,3-dimethyl-6-{8-[4-(2-oxo-imidazolidin-1-yl)-piperidin-1-yl]-[1,2,4]triazolo[1,5-a]pyrazin-2-ylamino}-1,3-dihydro-indol-2-one]: the IC50 in assay [1] is 0.3 to 3 µM; in assay [2], 3 to 50 µM.

Consider `Cn1cc(-c2nccn3nc(Nc4ccc5c(C(C)(C)O)n[nH]c5c4)nc23)cn1` [C72, 2-{6-[8-(1-methyl-1H-pyrazol-4-yl)-[1,2,4]triazolo[1,5-a]pyrazin-2-ylamino]-1H-indazol-3-yl}-propan-2-ol], for which the IC50 in assay [1] was less than 0.1 µM; in assay [2], 0.3 to 3 µM.

`CN(c1nccn2nc(Nc3ccc4c(c3)NC(=O)C4(C)C)nc12)C1CCOCC1` [C101, 3,3-dimethyl-6-{8-[methyl-(tetrahydro-pyran-4-yl)-amino]-[1,2,4]triazolo[1,5-a]pyrazin-2-ylamino}-1,3-dihydro-indol-2-one]: the values for the concentration for half-maximal inhibition (IC50) in assay [1] and in assay [2] were 0.1 to 0.3 µM and 3 to 50 µM, respectively.

Take `Cn1cc(-c2nccn3nc(Nc4cccc(N5CCOCC5)c4)nc23)cn1` [C18, [8-(1-Methyl-1H-pyrazol-4-yl)-[1,2,4]triazolo[1,5-a]pyrazin-2-yl]-(3-morpholin-4-yl-phenyl)-amine]: the IC50 in assay [1] lay in the range of 0.3 to 3 µM; in assay [2] it was 3 to 50 µM.

Turning to `CC1(C)C(=O)Nc2cc(Nc3nc4c(N[C@H]5CCCNC5)nccn4n3)ccc21` [C85, 3,3-dimethyl-6-[8-((S)-piperidin-3-ylamino)-[1,2,4]triazolo[1,5-a]pyrazin-2-ylamino]-1,3-dihydro-indol-2-one], the IC50 in assay [1] was less than 0.1 µM; in assay [2] it was 3 to 50 µM.

Consider `O=C(c1ccc(-c2nccn3nc(Nc4ccc(N5CCOCC5)cc4)nc23)cc1)N1CCOCC1` [C41, morpholin-4-yl-{4-[2-(4-morpholin-4-yl-phenylamino)-[1,2,4]triazolo[1,5-a]pyrazin-8-yl]-phenyl}-methanone], for which the IC50 in assay [1] and in assay [2] was 3 to 50 µM each time.

As to `CC1(C)C(=O)Nc2cc(Nc3nc4c(N5CC[C@H](O)C5)nccn4n3)ccc21` [C83, 6-[8-((S)-3-hydroxy-pyrrolidin-1-yl)-[1,2,4]triazolo[1,5-a]pyrazin-2-ylamino]-3,3-dimethyl-1,3-dihydro-indol-2-one], the results for the IC50 in assay [1] and in assay [2] were 0.1 to 0.3 µM and 3 to 50 µM, respectively.

With `CC1(C)C(=O)Nc2cc(Nc3nc4c(N5CCC6(CC(=O)NC6=O)C5)nccn4n3)ccc21` (centres unmarked) [C95, 7-[2-(3,3-dimethyl-2-oxo-2,3-dihydro-1H-indol-6-ylamino)-[1,2,4]triazolo[1,5-a]pyrazin-8-yl]-2,7-diaza-spiro[4.4]nonane-1,3-dione], the figures for the IC50 in assay [1] and in assay [2] were less than 0.1 µM and 3 to 50 µM, respectively.

As for `Cn1cc(-c2nccn3nc(Nc4ccc(C(C)(C)O)cc4)nc23)cn1` [C61, 2-{4-[8-(1-methyl-1H-pyrazol-4-yl)-[1,2,4]triazolo[1,5-a]pyrazin-2-ylamino]-phenyl}-propan-2-ol], the IC50 in assay [1] was in the range of 0.1 to 0.3 µM; in assay [2], 0.3 to 3 µM.

Regarding `Cn1cc(-c2nccn3nc(Nc4ccc(S(C)(=O)=O)cc4)nc23)cn1` [C23, (4-Methanesulfonyl-phenyl)-[8-(1-methyl-1H-pyrazol-4-yl)-[1,2,4]triazolo[1,5-a]pyrazin-2-yl]-amine], the IC50 was in the range of 0.3 to 3 µM in assay [1] and 3 to 50 µM in assay [2].

As to `Cc1nc2cc(Nc3nc4c(-c5ccc(S(C)(=O)=O)cc5)nccn4n3)ccc2[nH]1` [C58, [8-(4-methanesulfonyl-phenyl)-[1,2,4]triazolo[1,5-a]pyrazin-2-yl]-(2-methyl-1H-benzoimidazol-5-yl)-amine], the IC50 in assay [1] and in assay [2] was 0.3 to 3 µM each time.

As for `Cn1cc(-c2nccn3nc(Nc4ccc5cn[nH]c5c4)nc23)cn1` [C12, (1H-Indazol-6-yl)-[8-(1-methyl-1H-pyrazol-4-yl)-[1,2,4]triazolo[1,5-a]pyrazin-2-yl]-amine], the IC50 fell in the range of 0.1 to 0.3 µM in assay [1] and 3 to 50 µM in assay [2].

Turning to `Cn1cc(-c2nccn3nc(Nc4ccc(C5(C#N)CC5)cc4)nc23)cn1` [C63, 1-{4-[8-(1-methyl-1H-pyrazol-4-yl)-[1,2,4]triazolo[1,5-a]pyrazin-2-ylamino]-phenyl}-cyclopropanecarbonitrile], the values for the IC50 in assay [1] and in assay [2] were 0.1 to 0.3 µM and 0.3 to 3 µM, respectively.

`Cc1nc2cc(Nc3nc4c(-c5ccc(CN6CCOCC6)cc5)nccn4n3)ccc2[nH]1` [C57, (2-methyl-1H-benzoimidazol-5-yl)-[8-(4-morpholin-4-ylmethyl-phenyl)-[1,2,4]triazolo[1,5-a]pyrazin-2-yl]-amine]: the IC50 was in the range of 3 to 50 µM in assay [1] and 0.3 to 3 µM in assay [2].

With `CC1(C)OC(=O)Nc2cc(Nc3nc4c(N5CCC6(C5)NC(=O)NC6=O)nccn4n3)ccc21` (centres unmarked) [C118, 7-[2-(4,4-dimethyl-2-oxo-1,4-dihydro-2H-benzo[d][1,3]oxazin-7-ylamino)-[1,2,4]triazolo[1,5-a]pyrazin-8-yl]-1,3,7-triaza-spiro[4.4]nonane-2,4-dione], the IC50 in assay [1] is less than 0.1 µM; in assay [2] it was 3 to 50 µM.

In the case of `CC1(C)C(=O)Nc2cc(Nc3nc4c(N5CC(O)C5)nccn4n3)ccc21` [C74, 6-[8-(3-hydroxy-azetidin-1-yl)-[1,2,4]triazolo[1,5-a]pyrazin-2-ylamino]-3,3-dimethyl-1,3-dihydro-indol-2-one], the IC50 in assay [1] lay in the range of 0.1 to 0.3 µM; in assay [2], 3 to 50 µM.

With `Cn1cc(-c2nccn3nc(Nc4ccc5cnn(C)c5c4)nc23)cn1` [C21, (1-Methyl-1H-indazol-6-yl)-[8-(1-methyl-1H-pyrazol-4-yl)-[1,2,4]triazolo[1,5-a]pyrazin-2-yl]-amine], the IC50 in assay [1] lay in the range of 0.3 to 3 µM; in assay [2], 3 to 50 µM.

On to `CN1c2ccc(Nc3nc4c(-c5cnn(C)c5)nccn4n3)cc2CS1(=O)=O` [C117, (1-methyl-2,2-dioxo-2,3-dihydro-1H-2I6-benzo[c]isothiazol-5-yl)-[8-(1-methyl-1H-pyrazol-4-yl)-[1,2,4]triazolo[1,5-a]pyrazin-2-yl]-amine], for which the IC50 in assay [1] was 0.1 to 0.3 µM; in assay [2] it was 0.3 to 3 µM.

Take `CC1(C)C(=O)Nc2cc(Nc3nc4c(N5CC6(COC6)C5)nccn4n3)ccc21` [C91, 3,3-dimethyl-6-[8-(2-oxa-6-aza-spiro[3.3]hept-6-yl)-[1,2,4]triazolo[1,5-a]pyrazin-2-ylamino]-1,3-dihydro-indol-2-one]: the results for the IC50 in assay [1] and in assay [2] were less than 0.1 µM and 3 to 50 µM, respectively.

With `Cn1cc(-c2nccn3nc(Nc4ccc5c(C(=O)C(F)(F)F)c[nH]c5c4)nc23)cn1` [C112, 2,2,2-trifluoro-1-{6-[8-(1-methyl-1H-pyrazol-4-yl)-[1,2,4]triazolo[1,5-a]pyrazin-2-ylamino]-1H-indol-3-yl}-ethanone], the values for the IC50 in assay [1] and in assay [2] were 0.3 to 3 µM and 3 to 50 µM, respectively.

In the case of `Cn1cc(-c2nccn3nc(Nc4cnn(C5CCNCC5)c4)nc23)cn1` [C28, [8-(1-Methyl-1H-pyrazol-4-yl)-[1,2,4]triazolo[1,5-a]pyrazin-2-yl]-(1-piperidin-4-yl-1H-pyrazol-4-yl)-amine hydrochloride], the IC50 was 3 to 50 µM in assay [1] and 0.3 to 3 µM in assay [2].

For `CC1(C)OC(=O)Nc2cc(Nc3nc4c(-c5cccc6[nH]ncc56)nccn4n3)ccc21` [C120, 7-[8-(1H-indazol-4-yl)-[1,2,4]triazolo[1,5-a]pyrazin-2-ylamino]-4,4-dimethyl-1,4-dihydro-benzo[d][1,3]oxazin-2-one], the IC50 is less than 0.1 µM in assay [1] and 0.3 to 3 µM in assay [2].
